Test results: patent US20090305969A1, “Skin Repair Accelerating Therapeutic Agent Containing Desacyl Ghrelin and Derivatives Thereof as Active Ingredient” (priority 2005, published 2009)
Where no end group is shown, it is not given here. The star is where a group is joined. Octanoyl = CCCCCCCC(=O)*

Tests used:
cultured fetal skin cell = assay: Proliferation activity in cultured fetal skin cell (BrdU uptake, Proliferation ELISA); format: cell-based, rat; settings: 24 hours incubation, BrdU 10 μM, versus control medium, FIG. 2
Protocol: The skin cells of a rat fetus were collected from a Wistar rat on the 17th day of pregnancy, and a dispersion liquid thereof was obtained in the same manner as in Example 1. The dispersed cells were suspended in a MCDB153HAA medium (F-Peptide Co., Ltd., Yamagata, Japan) containing 2% fetal bovine serum, penicillin (100 U/mL), streptomycin (100 μg/mL) and epidermal growth factor EGF (5 ng/mL), and sowed on a polyethyleneimine coated 96-hole multi-well plate in an amount of 3×10^4 cells/well. Desacyl ghrelin (0.05 to 500 μmol/mL (nM)) or desacyl ghrelin (1-15)-NH2 (SEQ ID NO: 22) (0.001 to 1 μmol/mL (nM)) and 5-bromo-2′-deoxyuridine (BrdU) (10 μM) were added thereto, which was then incubated for 24 hours. A medium containing neither desacyl ghrelin nor desacyl ghrelin (1-15)-NH2 was used as a control. After the culture was over, cells were collected, and then uptake quantity of BrdU into the fetal skin cell was measured using Proliferation ELISA Kit (Roche Diagnostic GmbH. Manheim, Germany) to consider the skin cell growth activity.
Uptake of BrdU increased when desacyl ghrelin or desacyl ghrelin (1-15)-NH2 acted on a cultured fetal skin cell.

skin cell of rat fetus = assay: Intracellular calcium increasing activity in single cultured skin cell of rat fetus (Fura-2 calcium imaging); format: cell-based; settings: for cell response in calcium imaging (FIG. 1 curves): single fetal rat skin cell, ghrelin and desacyl ghrelin added to different cells, concentration not given
Protocol: A Wistar rat on the 17th day of pregnancy underwent laparotomy under anesthesia for fetus extraction. A small piece of skin was collected from the fetus, treated with collagenase in cold Hank's solution, digested with papain, and mechanically separated by pipetting. This gave a dispersion liquid of the fetal skin cells. A single cell was obtained from the dispersion liquid, ghrelin was added thereto, and calcium imaging was performed. For the calcium imaging, a calcium imaging device (IMACS, Hamamatsu Photonics) was used. That is, the ratio of the emission at a wavelength of 510 nm was measured when excitation was performed by 340 nm/380 nm light. Fura-2 was used as a calcium imaging agent. Desacyl ghrelin derived from a rat (SEQ ID NO: 3) was used.
In FIG. 1, I, II and III are the points at which a photograph was taken, but the photographs are omitted from the present description. […] Ghrelin and desacyl ghrelin were added to different cells, respectively.
It was shown that a receptor that responds to desacyl ghrelin existed in the skin cell of the rat fetus, and that addition of desacyl ghrelin increased intracellular calcium, inducing the activity of desacyl ghrelin.

| Substance | uptake of BrdU into the fetal skin cell (cultured fetal skin cell; desacyl ghrelin (1-15)-NH2 0.001 to 1 μmol/mL (nM)) | intracellular calcium (skin cell of rat fetus; 1×10^−6 M, skin cell of a single rat fetus, Fura-2 ratio 340 nm/380 nm, FIG. 1) | cell response in calcium imaging (FIG. 1 curves) (skin cell of rat fetus) | uptake of BrdU into the fetal skin cell (cultured fetal skin cell; desacyl ghrelin 0.05 to 500 μmol/mL (nM)) |
| --- | --- | --- | --- | --- |
| desacyl ghrelin (1-15)-NH2: Peptide of the N terminus to the 15th amino acid residue of desacyl ghrelin, the 15th amino acid amidated (GSSFLSPEHQKAQQR-NH2; listed as Rattus norvegicus) | increased | – | – | – |
| desacyl ghrelin: Ghrelin peptide without the acyl (octanoyl) group at the third serine; rat sequence GSSFLSPEHQKAQQRKESKKPPAKLQPR (SEQ ID NO: 3) (PEPTIDE (1)..(28) Amino acid sequence for rat endogenous peptides of growth hormone secretagogue receptor; listed as Rattus norvegicus) | – | increase of intracellular calcium was observed | responded | increased |
| ghrelin: 28-residue peptide hormone, third amino acid from the N terminus acylated with fatty acid (n-octanoyl); acts on GHS-R1a (GSS(Octanoyl)FLSPEHQRVQQRKESKKPPAKLQPR; UniProt Q9UBU3 24-51, looked up) [reference compound] | – | – | responded | – |
